# Assay results published in ChEMBL document CHEMBL1201862, “PubChem BioAssay data set” (2004).
# Active and inactive are the calls of the source.
# How the values were obtained:
# [1] = viability of uninfected HEp-2 cells – cell-based, HTS, cytotoxicity control for RSV inhibitor project, dose response (AID 2410); type: functional; details: human respiratory syncytial virus
# [2] = target: T1, Streptokinase A (Streptococcus pyogenes serotype M1, UniProt P10520); assay: viability-normalized secreted streptokinase activity reduction – plasminogen activation absorbance, OD405, dose response (AID 1914); type: functional, Streptococcus pyogenes M1 GAS;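 further: secreted streptokinase activity via plasminogen activation per viability signal from cell pellet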
# T1 sequence (P10520 whole entry): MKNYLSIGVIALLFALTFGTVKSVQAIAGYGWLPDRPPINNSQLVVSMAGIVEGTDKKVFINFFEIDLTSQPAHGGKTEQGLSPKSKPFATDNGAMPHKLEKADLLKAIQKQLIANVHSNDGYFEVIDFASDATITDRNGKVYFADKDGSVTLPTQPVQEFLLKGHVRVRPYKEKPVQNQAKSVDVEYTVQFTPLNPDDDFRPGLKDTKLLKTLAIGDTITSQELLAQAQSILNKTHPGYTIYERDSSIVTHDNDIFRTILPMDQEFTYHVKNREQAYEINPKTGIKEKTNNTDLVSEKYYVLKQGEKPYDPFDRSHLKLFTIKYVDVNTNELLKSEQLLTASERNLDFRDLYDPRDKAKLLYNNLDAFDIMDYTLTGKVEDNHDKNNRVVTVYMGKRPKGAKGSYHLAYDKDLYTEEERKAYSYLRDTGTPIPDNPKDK
# [3] = system: Streptococcus sp. 'group A'; assay: Streptococcus pyogenes SK(-)GAS viability under kanamycin – luminescence, BacTiterGlo, confirmation, counter-screen for streptokinase expression inhibitor project, dose response (AID 1900); type: functional, organism-based
# [4] = system: Streptococcus; assay: GAS UMAA2166 growth inhibition – luminescence, BacTiterGlo, counter-screen for streptokinase expression inhibitor project, dose response (AID 1915); type: functional, organism-based;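 further: potency for reduction of bacterial viability or growth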
# [5] = Luminescence Cell-Based Dose Response HTS to Identify Activators of Luciferase Translation or Activity in H4 […] Cells. [Related pubchem assays: 1829 (Project Summary), 1814 (Primary HTS)]; type: functional
# [6] = Luminescence Cell-Based Dose Confirmation HTS to Identify Activators of 5'UTR Stem-Loop Driven Alpha-Synuclein mRNA Translation in H4 Neuroglioblastoma Cells. [Related pubchem assays: 1829 (Project Summary), 1814 (Primary HTS)]; type: functional
# [7] = system: H4; assay: Luminescence Cell-Based Dose Response HTS to Identify Activators of 5'UTR Stem-Loop Driven Prion Protein mRNA Translation in H4 Neuroglioblastoma Cells. [Related pubchem assays: 1829 (Project Summary), 1814 (Primary HTS)]; type: functional; details: Homo sapiens
# [8] = target: FAD-linked sulfhydryl oxidase ALR (Homo sapiens, UniProt P55789); assay: ALR-catalysed DTT oxidation blockers – biochemical, H2O2 detection, luminescence, cherry-pick, dose response (AID 493248)
# [9] = target: T2, Polyadenylate-binding protein 1 (Homo sapiens, UniProt P11940); assay: MLLE binding blockers, Cy5 peptide tracer – biochemical, fluorescence polarization, Cy5-PAM2 peptide, secondary, miRNA deadenylation inhibitor project, dose response (AID 602260); type: functional; details: read-out: IC50_Mean
# [10] = target: T2, Polyadenylate-binding protein 1; assay: MLLE domain peptide-binding blockers, IC50 – biochemical, fluorescence polarization, FITC-PAM2 peptide, dose response (AID 602259); type: functional; details: read-out: IC50_Mean
# [11] = luciferase reporter signal suppression in cells – H4 neuroglioma cells, luminescence, dose response (AID 1990); type: functional, cell-based
# [12] = alpha-synuclein stem-loop luciferase translation blockers – H4 neuroglioma cells, luminescence, confirmation (AID 1988); type: functional, cell-based
# [13] = Luminescence Cell-Based Dose Response HTS to Identify Inhibitors of 5'UTR Stem-Loop Driven Prion Protein mRNA Translation in H4 Neuroglioblastoma Cells. [Related pubchem assays: 1827 (Project Summary), 1813 (Primary HTS)]; type: functional
# [14] = target: T3, Cytochrome P450 1A2 (Homo sapiens, UniProt P05177);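 further: PubChem cytochrome P450 panel assay, CYP1A2 panel member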
# T3 sequence (P05177 whole entry): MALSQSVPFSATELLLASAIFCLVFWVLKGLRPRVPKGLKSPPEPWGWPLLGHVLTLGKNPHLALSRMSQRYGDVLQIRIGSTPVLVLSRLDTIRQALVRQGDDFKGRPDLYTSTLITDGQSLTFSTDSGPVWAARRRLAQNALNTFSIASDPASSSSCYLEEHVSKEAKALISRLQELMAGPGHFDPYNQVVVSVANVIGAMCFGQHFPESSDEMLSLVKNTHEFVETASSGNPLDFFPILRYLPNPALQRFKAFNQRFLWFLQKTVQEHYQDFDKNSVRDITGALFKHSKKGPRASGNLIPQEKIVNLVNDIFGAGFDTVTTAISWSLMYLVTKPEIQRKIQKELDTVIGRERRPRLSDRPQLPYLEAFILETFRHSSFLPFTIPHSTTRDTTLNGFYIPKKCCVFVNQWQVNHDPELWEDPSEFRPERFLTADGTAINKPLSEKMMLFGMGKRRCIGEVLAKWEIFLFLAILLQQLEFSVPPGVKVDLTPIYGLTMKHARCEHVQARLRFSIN
# [15] = target: Cytochrome P450 2C19 (Homo sapiens, UniProt P33261); assay: Cytochrome panel assay with activity outcomes. Panel member name: p450-cyp2c19 Compounds with AC50 equal or less than 10 uM are considered active; type: functional; details: read-out: AC50
# Chain of Cytochrome P450 2C19 (P33261 whole entry): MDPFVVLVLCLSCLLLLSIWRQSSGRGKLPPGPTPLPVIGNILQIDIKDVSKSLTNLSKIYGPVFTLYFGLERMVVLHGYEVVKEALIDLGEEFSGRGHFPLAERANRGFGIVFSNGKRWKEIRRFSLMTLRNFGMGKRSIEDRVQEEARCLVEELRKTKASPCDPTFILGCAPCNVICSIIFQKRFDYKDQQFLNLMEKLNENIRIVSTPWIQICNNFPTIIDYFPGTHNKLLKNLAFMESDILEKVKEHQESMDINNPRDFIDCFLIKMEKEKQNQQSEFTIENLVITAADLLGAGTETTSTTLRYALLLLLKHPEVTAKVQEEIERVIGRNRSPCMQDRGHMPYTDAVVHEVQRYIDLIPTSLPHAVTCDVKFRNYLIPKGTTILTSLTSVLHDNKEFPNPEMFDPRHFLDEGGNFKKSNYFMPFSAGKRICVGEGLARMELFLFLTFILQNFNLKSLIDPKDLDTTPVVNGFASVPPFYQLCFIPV
# Chain of FAD-linked sulfhydryl oxidase ALR (P55789 whole entry): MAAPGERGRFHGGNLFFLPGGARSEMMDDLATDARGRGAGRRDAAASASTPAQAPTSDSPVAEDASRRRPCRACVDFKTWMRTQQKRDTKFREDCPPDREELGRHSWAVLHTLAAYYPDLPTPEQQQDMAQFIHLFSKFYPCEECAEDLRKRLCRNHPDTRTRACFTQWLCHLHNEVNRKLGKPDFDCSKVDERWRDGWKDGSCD
# T2 sequence (P11940 whole entry, the tested form may be a part): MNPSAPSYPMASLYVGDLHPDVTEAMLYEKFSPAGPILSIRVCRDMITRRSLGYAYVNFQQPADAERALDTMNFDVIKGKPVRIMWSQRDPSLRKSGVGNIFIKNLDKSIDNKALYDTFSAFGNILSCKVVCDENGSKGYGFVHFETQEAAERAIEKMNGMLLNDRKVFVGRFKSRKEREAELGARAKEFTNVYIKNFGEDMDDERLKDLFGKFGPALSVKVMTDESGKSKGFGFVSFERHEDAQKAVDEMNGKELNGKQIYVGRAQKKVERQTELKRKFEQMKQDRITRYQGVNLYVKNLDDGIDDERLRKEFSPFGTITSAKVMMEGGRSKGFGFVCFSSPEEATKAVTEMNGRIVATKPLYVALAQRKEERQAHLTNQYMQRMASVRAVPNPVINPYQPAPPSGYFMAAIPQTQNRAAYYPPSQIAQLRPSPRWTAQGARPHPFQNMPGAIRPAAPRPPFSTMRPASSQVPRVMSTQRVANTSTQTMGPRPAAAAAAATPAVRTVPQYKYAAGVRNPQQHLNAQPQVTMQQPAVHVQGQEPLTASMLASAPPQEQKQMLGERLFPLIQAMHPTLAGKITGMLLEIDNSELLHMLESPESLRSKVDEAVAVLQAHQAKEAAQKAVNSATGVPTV
smiles,measurement,setting,value
CC1CCCCN1S(=O)(=O)c1ccc(NC(=O)c2cccs2)cc1 (stereo unspecified),CC50,[1],25.1 µM (active)
CC(C)n1cnc2c(NCc3ccccc3)nc(NCc3ccccc3)nc21,EC50,[2],> 150 µM (not active)
same,EC50,[3],5.26 µM (active)
same,EC50,[4],> 150 µM (not active)
O=C(c1cnn2c(C(F)(F)F)cc(-c3ccc(F)cc3)nc12)N1CCc2ccccc2C1,EC50,[2],37 µM (active)
same,EC50,[3],14 µM (active)
same,EC50,[4],> 150 µM (not active)
O=C(Nc1ccc2nn(-c3ccc(F)cc3)nc2c1)c1cccnc1,CC50,[1],> 50 µM (active)
COc1cccc(C2C(C#N)=C(N)OC(C(C)(C)C)=C2C#N)c1 (stereo unspecified),EC50,[5],> 120 µM (not active)
same,EC50,[6],> 120 µM (not active)
same,EC50,[7],> 120 µM (not active)
Cc1nc2c(cc(Oc3ccc(S(=O)(=O)N4CCOCC4)cn3)c3ccsc32)s1,EC50,[5],15.5 µM (active)
same,EC50,[6],10.2 µM (active)
same,EC50,[7],> 120 µM (not active)
FC(F)(F)c1cc(CCN2C(=S)NC[C@@H]2CC2CCCCC2)cc(C(F)(F)F)c1,EC50,[2],7 µM (active)
O=C(Cc1ccc(Cl)cc1)N1CCN(c2ccccc2)CC1,AC50,[8],17.8 µM (active)
Cc1cc(C)nc(SCNC(=O)c2ccc(Cl)cc2)n1,IC50,[9],> 66 µM (inactive)
same,IC50,[10],> 66 µM (inactive)
CC(C)(C)CC(C)(C)Nc1c(-c2ccc(O)cc2)nc2cnccn12,EC50,[11],13.9 µM (active)
same,EC50,[12],107 µM (active)
same,EC50,[13],14.9 µM (active)
CSc1ccc(CC(=O)N2CCC(n3nccc3NC(=O)C3CC3)CC2)cc1,EC50,[5],4.85 µM (active)
same,EC50,[6],15.2 µM (active)
same,EC50,[7],> 120 µM (not active)
COc1cc(/C=C/c2ccc(O)cc2)cc(OC)c1 [PTEROSTILBENE],AC50,[8],0.778 µM (active)
Cc1ccc(C2Cc3cc(O)c(O)cc3CN2)cc1 (stereo unspecified),AC50,[8],4.2 µM (active)
Cc1ccc(Nc2nnc(SCC(=O)c3ccc(Br)s3)s2)c(C)c1,CC50,[1],24.4 µM (active)
CCOc1ccc(N/C(S)=N/CCCn2ccnc2)cc1,EC50,[5],> 120 µM (not active)
same,EC50,[6],> 120 µM (not active)
same,EC50,[7],> 120 µM (not active)
CN(C(=O)CSc1nncc2ccccc12)C1CCCCC1,EC50,[5],14.1 µM (active)
same,EC50,[6],10.5 µM (active)
same,EC50,[7],13.1 µM (active)
Fc1ccc(-c2ccnc3nc(-n4cccc4)nn23)cc1,EC50,[11],39.7 µM (active)
same,EC50,[12],> 120 µM (not active)
same,EC50,[13],> 120 µM (not active)
Sc1nnc2n1CCCN2,AC50,[8],11.1 µM (active)
COc1ccc(CNc2ncc(-c3cccc([N+](=O)[O-])c3)n2C)c(OC)c1OC,AC50,[8],0.035 µM (active)
Cc1ccc(-c2csc(NCCc3nc4cc(Cl)c(Cl)cc4n3CCOCCO)n2)cc1,CC50,[1],9.53 µM (active)
CCc1ccc(NC(=O)C2CCN(S(=O)(=O)c3ccc4c(c3)NC(=O)CO4)CC2)cc1,EC50,[11],> 120 µM (not active)
same,EC50,[12],> 120 µM (not active)
same,EC50,[13],> 120 µM (not active)
CN1CCN(C(=S)c2ccc(-c3cccc(Cl)c3Cl)o2)CC1,CC50,[1],20.7 µM (active)
C(/C=C/c1ccco1)=N/N1CCN(c2ccccc2)CC1,AC50,[14],8.91 µM (inconclusive)
same,EC50,[5],17.5 µM (active)
same,EC50,[6],2.21 µM (active)
same,AC50,[15],2 µM (inconclusive)
O=C(NN=C(S)Nc1ccc(Cl)c(Cl)c1)c1cccc([N+](=O)[O-])c1,CC50,[1],7.46 µM (active)
O=C(O)c1ccc(NC(=O)c2cn(-c3ccccc3)nc2-c2cccc(Cl)c2)cc1,CC50,[1],33.6 µM (active)
COc1cccc(C(=O)Nc2ccc3[nH]c(O)nc3c2)c1OC,EC50,[11],< 0.1 µM (active)
same,EC50,[13],> 120 µM (not active)
COc1ccc(C(=O)n2c(N)nc3ccccc32)cc1OC,EC50,[5],0.429 µM (active)
COc1cc(C(=O)NNC(=S)NC(=O)c2ccccc2C)cc(OC)c1OC,EC50,[2],> 150 µM (not active)
same,EC50,[3],2.06 µM (active)
same,EC50,[4],49.5 µM (active)
COc1cc(N2CCCC2)c(OC)cc1/C=C(/C#N)c1cccc(Br)c1,CC50,[1],> 50 µM (active)
Cc1ccc(-n2nc3c(n2)/C(=N/O)CC/C3=N\O)cc1,EC50,[5],1.05 µM (active)
COc1ccc(/C=N/Nc2nc(Nc3ccccc3)nc(N3CCCCC3)n2)cc1OC,EC50,[2],> 150 µM (not active)
same,EC50,[5],8.28 µM (active)
same,EC50,[6],9.49 µM (active)
same,EC50,[7],23.1 µM (active)
same,EC50,[3],16.1 µM (active)
same,EC50,[4],46.3 µM (active)
COc1cccc(C2Nc3ccc4ccccc4c3C3=C2C(=O)CCC3)c1O (stereo unspecified),EC50,[11],10 µM (active)
same,EC50,[12],11.7 µM (active)
same,EC50,[13],32.1 µM (active)
Oc1ccc(/C=N/Nc2cccc3cccnc23)c(O)c1,EC50,[7],18.7 µM (active)
CC(C)S(=O)(=O)c1csc(NC(=O)Nc2cc(Cl)ccc2Cl)c1Cl,EC50,[2],7.69 µM (active)
same,EC50,[3],1.3 µM (active)
same,EC50,[4],8.4 µM (active)
Nc1cccc(Nc2ccccc2)c1,AC50,[8],2.5 µM (active)
Cc1[nH]c2ccccc2c1CCNS(=O)(=O)c1ccc(S(N)(=O)=O)cc1,AC50,[8],2.77 µM (active)
CC(C)C(=O)Nc1ccc(C(=O)NNC(=S)NC(=O)c2cccs2)cc1,EC50,[2],> 150 µM (not active)
same,EC50,[3],6.98 µM (active)
same,EC50,[4],34.8 µM (active)
COc1cccc(-n2cnc3cccc(N)c32)c1,AC50,[8],24.2 µM (active)
CNC(=O)c1cccn(Cc2cccc(C(F)(F)F)c2)c1=O,EC50,[11],> 120 µM (not active)
same,EC50,[12],14.6 µM (active)
same,EC50,[13],42.8 µM (active)
CC(=O)Nc1sc(NC(=O)c2ccc([N+](=O)[O-])cc2)nc1-c1cccs1,EC50,[2],> 150 µM (not active)
same,EC50,[3],> 150 µM (not active)
same,EC50,[4],> 150 µM (not active)
CN(C)/C=N/c1ncnc2c1cnn2-c1ccc(C(F)(F)F)cn1,EC50,[5],> 120 µM (not active)
same,EC50,[7],> 120 µM (not active)
COc1ccc(CCN2CC3=C(C2=O)C(c2ccccc2)NC(=O)N3C)cc1OC (stereo unspecified),EC50,[11],24.4 µM (active)
same,EC50,[12],> 120 µM (not active)
same,EC50,[13],> 120 µM (not active)
O=C1c2ccccc2NC(c2ccccc2O)N1NS(=O)(=O)c1ccccc1 (stereo unspecified),EC50,[5],> 60 µM (not active)
same,EC50,[6],> 120 µM (not active)
same,EC50,[7],> 120 µM (not active)
Fc1ccc(-n2nnnc2S)cc1N1CCCC1,AC50,[8],5.21 µM (active)
Cc1cc(C(=O)CC#N)c(C)n1-c1c(C)n(C)n(-c2ccccc2)c1=O,EC50,[11],> 120 µM (not active)
same,EC50,[12],> 120 µM (not active)
same,EC50,[13],> 120 µM (not active)
O=C(O)CSc1nnc(NC(=O)c2ccc3c(c2)OCO3)s1,EC50,[11],13 µM (active)
same,EC50,[12],62.2 µM (active)
same,EC50,[13],16.2 µM (active)
O=C(O)CCn1cc(C=C2C(=O)NC(=O)NC2=O)c(-c2cc3ccccc3oc2=O)n1,AC50,[8],0.109 µM (active)
CCOC(=O)C1=C(CSc2nc(-c3ccccc3)ccc2C#N)OC(N)=C(C#N)C1c1ccc(OC)cc1 (stereo unspecified),EC50,[5],16.8 µM (active)
same,EC50,[6],12.3 µM (active)
same,EC50,[7],13.3 µM (active)
